According to patent publication US8247595B2, “Organic sulfur compound and its use for controlling harmful arthropod” (Sumitomo Chemical Company, Limited, priority 2007, dated 2012):

Columns and labels:
Type in all cases: in vivo
[1] = test system: Haemaphysalis longicornis; test: Test Example 5: treated filter paper pouch, death rate of ticks; details: 48 h, filter paper treated with 100 mg/m^2, non-blood-sucking nymphal ticks, 10 ticks/group, after 2 days, read-out: death rate of the tick
Method: Five milligrams of any one of the present compounds (19), (23), (24), (27), (28), (29), (32), (33), (35), (38) and (39) was dissolved in 10 mL of acetone. One milliliter of the acetone solution was uniformly applied on one side of a filter paper (TOYO No. 2; 5×10 cm), so that the filter paper was treated with 100 mg/m^2 of the present compound. After drying, the filter paper was folded in two and its edges were clipped to make a pouch. Non-blood-sucking nymphal ticks (Haemaphysalis longicornis, 10 ticks/group) were put into the pouch, and the pouch was sealed with clips. After 2 days, the number of surviving ticks was examined and the death rate was calculated.
As a result, in treatments with the present compounds (19), (23), (24), (27), (28), (29), (32), (33), (35), (38) and (39), the death rate of the tick was 90%.

Musca domestica = test: Test Example 2: treated filter paper with sucrose bait, death rate of Musca domestica; details: 500 ppm test solution, 0.7 ml on filter paper, 10 female imagoes, after 24 hours
Method: (§1) Preparations of the present compounds (1), (2), (3), (4), (5), (6), (7), (8), (9), (10), (13), (18), (23), (24), (25), (26), (27), (28), (29), (30), (31), (32), (33), (34), (35), (38) and (39) obtained according to Formulation Example 44 were diluted so that the active ingredient concentration was 500 ppm to obtain test solutions.
(§2) A filter paper having a diameter of 5.5 cm was spread on the bottom of a polyethylene cup having a diameter of 5.5 cm and 0.7 ml of the test solution was added dropwise onto the filter paper. As a bait 30 mg of sucrose was uniformly placed on the filter paper. Into the polyethylene cup, 10 female imagoes of Musca domestica were released and the cup was sealed with a lid. After 24 hours, the number of surviving Musca domestica was examined and the death rate of the pest was calculated.
As a result, in treatments with the present compounds (1), (2), (3), (4), (5), (6), (7), (8), (9), (10), (13), (18), (23), (24), (25), (26), (27), (28), (29), (30), (31), (32), (33), (34), (35), (38) and (39), the death rate of the pest was 70% or more.

Blattalla germanica = test: Test Example 3: treated filter paper with sucrose bait, death rate of Blattalla germanica; details: 144 h; 500 ppm test solution, 0.7 ml on filter paper; 2 male imagoes; after 6 days
Method: as §1, with “compounds” for “compounds (1), (2),”, “(7),” for “(7), (8),”, “(13),” for “(13), (18),”
as §2, with “2 male” for “10 female”, “Blattalla germanica” for “Musca domestica”, “6 days,” for “24 hours,”
As a result, in treatments with the present compounds (3), (4), (5), (6), (7), (9), (10), (13), (23), (24), (25), (26), (27), (28), (29), (30), (31), (32), (33), (34), (35), (38) and (39), the death rate of the pest was 100%.

Culex pipiens pallens = test: Test Example 4: larvae released into treated water, death rate of Culex pipiens pallens; details: 24 h, active ingredient concentration 3.5 ppm in water, 20 last-instar larvae, after one day
Method: as §1, with “(7),” for “(7), (8), (9), (10),”, “(13), (14), (15), (16),” for “(13),”, “(18), (22),” for “(18),”, “(35), (36),” for “(35),”
To 100 mL of ion-exchanged water, 0.7 ml of the test solution was added (active ingredient concentration: 3.5 ppm). Into the solution, 20 last-instar larvae of Culex pipiens pallens were released. After one day, the number of surviving Culex pipiens pallens was examined and the death rate of the pest was calculated.
As a result, in treatments with the present compounds (1), (2), (3), (4), (5), (6), (7), (13), (14), (15), (16), (18), (22), (23), (24), (25), (26), (27), (28), (29), (30), (31), (32), (33), (34), (35), (36), (38) and (39), the death rate of the pest was 90% or more.

| SMILES | pest or weed control at 100 mg/m2 [1] | pest or weed control at 500 ppm (Musca domestica) | pest or weed control at 500 ppm (Blattalla germanica) | pest or weed control at 3.5 ppm (Culex pipiens pallens) |
| --- | --- | --- | --- | --- |
| N#CC(CC=CC(F)(F)F)S(=O)(=O)CCC(F)(F)F (centres unmarked) [present compound (19), 6,6,6-trifluoro-2-(3,3,3-trifluoropropylsulfonyl)-4-hexenenitrile] | 90% |  |  |  |
| C#CCCCCC(C#N)S(=O)(=O)CCC(F)(F)F (centres unmarked) [present compound (23), 2-(3,3,3-trifluoropropylsulfonyl)-7-octynenitrile] | 90% | ≥ 70% | 100% | ≥ 90% |
| C#CCCCCCC(C#N)S(=O)(=O)CCC(F)(F)F (centres unmarked) [present compound (24), 2-(3,3,3-trifluoropropylsulfonyl)-8-nonynenitrile] | 90% | ≥ 70% | 100% | ≥ 90% |
| C#CCCCCCCC(C#N)S(=O)(=O)CCC(F)(F)F (centres unmarked) [present compound (25), 2-(3,3,3-trifluoropropylsulfonyl)-9-decynenitrile] |  | ≥ 70% | 100% | ≥ 90% |
| C#CCCCCC(Cl)(C#N)S(=O)(=O)CCC(F)(F)F (centres unmarked) [present compound (26), 2-chloro-2-(3,3,3-trifluoropropylsulfonyl)-7-octynenitrile] |  | ≥ 70% | 100% | ≥ 90% |
| C#CCC(C)CCC(C#N)S(=O)(=O)CCC(F)(F)F (centres unmarked) [present compound (27), 5-methyl-2-(3,3,3-trifluoropropylsulfonyl)-7-octynenitrile] | 90% | ≥ 70% | 100% | ≥ 90% |
| C#CC(C)CCCC(C#N)S(=O)(=O)CCC(F)(F)F (centres unmarked) [present compound (28), 6-methyl-2-(3,3,3-trifluoropropylsulfonyl)-7-octynenitrile] | 90% | ≥ 70% | 100% | ≥ 90% |
| C#CCC(CC)CCC(C#N)S(=O)(=O)CCC(F)(F)F (centres unmarked) [present compound (29), 5-ethyl-2-(3,3,3-trifluoropropylsulfonyl)-7-octynenitrile] | 90% | ≥ 70% | 100% | ≥ 90% |
| C#CCC(CC)CCC(C(=O)OC)S(=O)(=O)CCC(F)(F)F (centres unmarked) [present compound (30), methyl 5-ethyl-2-(3,3,3-trifluoropropylsulfonyl)-7-octynoate] |  | ≥ 70% | 100% | ≥ 90% |
| C#CCC(CC)CCC(Cl)(C(=O)OC)S(=O)(=O)CCC(F)(F)F (centres unmarked) [present compound (31), methyl 2-chloro-5-ethyl-2-(3,3,3-trifluoropropylsulfonyl)-7-octynoate] |  | ≥ 70% | 100% | ≥ 90% |
| C#CCC(CC)CCC(Cl)(C(N)=O)S(=O)(=O)CCC(F)(F)F (centres unmarked) [present compound (32), 2-chloro-5-ethyl-2-(3,3,3-trifluoropropylsulfonyl)-7-octynamide] | 90% | ≥ 70% | 100% | ≥ 90% |
| C#CCC(C)(C)CCC(C#N)S(=O)(=O)CCC(F)(F)F (centres unmarked) [present compound (33), 5,5-dimethyl-2-(3,3,3-trifluoropropylsulfonyl)-7-octynenitrile] | 90% | ≥ 70% | 100% | ≥ 90% |
| CC(C#N)(C/C=C/C(F)(F)F)S(=O)(=O)CCC(F)(F)F (centres unmarked) [present compound (34), 6,6,6-trifluoro-2-methyl-2-(3,3,3-trifluoropropylsulfonyl)-4-hexenenitrile] |  | ≥ 70% | 100% | ≥ 90% |
| C/C(=C\CC(C#N)S(=O)(=O)CCC(F)(F)F)C(F)(F)F (centres unmarked) [present compound (35), 6,6,6-trifluoro-5-methyl-2-(3,3,3-trifluoropropylsulfonyl)-4-hexenenitrile] | 90% | ≥ 70% | 100% | ≥ 90% |
| C#CCOCCC(C#N)S(=O)(=O)CCC(F)(F)F (centres unmarked) [present compound (38), 4-(2-propyonyloxy)-2-(3,3,3-trifluoropropylsulfonyl)butanenitrile] | 90% | ≥ 70% | 100% | ≥ 90% |
| C#CCOCCC(C)(C#N)S(=O)(=O)CCC(F)(F)F (centres unmarked) [present compound (39), 2-methyl-4-(2-propynyloxy)-2-(3,3,3-trifluoropropylsulfonyl)butanenitrile] | 90% | ≥ 70% | 100% | ≥ 90% |
